Results taken from ChEMBL document CHEMBL4130627, “Prodrugs of the Phosphoribosylated Forms of Hydroxypyrazinecarboxamide Pseudobase T-705 and Its De-Fluoro Analogue T-1105 as Potent Influenza Virus Inhibitors” (J Med Chem, 2018).

How the values were obtained:
Test in all cases: microbe, parasite or virus in culture
Influenza A virus [1] = conditions: MDCK, 72 h
Influenza B virus [2] = conditions: Ned/537/05, MDCK, 72 h
Influenza A virus [3] = conditions: MDCK, 72 h; remark: listed apart in the source
Influenza B virus [4] = conditions: Ned/537/05, MDCK, 72 h; remark: listed apart in the source

Structure (SMILES) | EC50 (Influenza A virus [1]) | EC50 (Influenza B virus [2]) | EC50 (Influenza A virus [3]) | EC50 (Influenza B virus [4])
NC(=O)c1nc(F)cnc1O | > 250 µM | > 250 µM | > 250 µM | > 250 µM
CCCCCCCCCC(=O)Oc1ccc(COP(=O)(OCc2ccc(OC(=O)CCCCCCCCC)cc2)OP(=O)(O)OC[C@H]2O[C@@H](n3ccnc(C(N)=O)c3=O)[C@H](O)[C@@H]2O)cc1.CCN(CC)CC | 0.97 µM | 0.55 µM | 1.3 µM | 0.39 µM
CCCCCCCCCCCCCCC(=O)Oc1ccc(COP(=O)(OCc2ccc(OC(=O)CCCC)cc2)OP(=O)(O)OC[C@H]2O[C@@H](n3cc(F)nc(C(N)=O)c3=O)[C@H](O)[C@@H]2O)cc1.CCN(CC)CC (stereo partly specified) | 8.8 µM | 3.4 µM | 6.6 µM | 2.8 µM
CCCCCCCCCC(=O)Oc1ccc(COP(=O)(OCc2ccc(OC(=O)CCCCCCCCC)cc2)OP(=O)(O)OP(=O)(O)OC[C@H]2O[C@@H](n3ccnc(C(N)=O)c3=O)[C@H](O)[C@@H]2O)cc1.CCN(CC)CC.CCN(CC)CC | 4.5 µM | 1.9 µM | 2.6 µM | 1 µM
Cc1cccc2c1OP(=O)(OC[C@H]1O[C@@H](n3ccnc(C(N)=O)c3=O)[C@H](O)[C@@H]1O)OC2 (stereo partly specified) | 368 µM | 200 µM | 256 µM | 106 µM
CCCCCCCCCCCCCCC(=O)Oc1ccc(COP(=O)(OCc2ccc(OC(=O)CCCC)cc2)OP(=O)(O)OP(=O)(O)OC[C@H]2O[C@@H](n3ccnc(C(N)=O)c3=O)[C@H](O)[C@@H]2O)cc1.CCN(CC)CC.CCN(CC)CC (stereo partly specified) | 5.4 µM | 2.6 µM | 5.6 µM | 1.5 µM
CC(=O)O[C@@H]1[C@H](OC(C)=O)[C@@H](COP2(=O)OCc3cccc(C)c3O2)O[C@H]1n1ccnc(C(N)=O)c1=O (stereo partly specified) | > 400 µM | > 400 µM | > 400 µM | 177 µM
CCCCCCCCCCCCCCC(=O)Oc1ccc(COP(=O)(OCc2ccc(OC(=O)CCCC)cc2)OP(=O)(O)OC[C@H]2O[C@@H](n3ccnc(C(N)=O)c3=O)[C@H](O)[C@@H]2O)cc1.CCN(CC)CC (stereo partly specified) | 1.4 µM | 0.66 µM | 1.5 µM | 0.53 µM
NC(=O)c1nc(Br)cnc1O | > 250 µM | > 250 µM | > 250 µM | 63 µM
NC(=O)c1nccnc1O | > 250 µM | > 250 µM | > 250 µM | > 250 µM
NC(=O)c1nc(Br)cn([C@@H]2O[C@H](CO)[C@@H](O)[C@H]2O)c1=O | > 250 µM | > 250 µM | > 250 µM | 170 µM
NC(=O)c1ncn([C@@H]2O[C@H](CO)[C@@H](O)[C@H]2O)n1 [RIBAVIRIN] | 5.8 µM | – | 5 µM | 1.5 µM
NC(=O)c1nccn([C@@H]2O[C@H](CO)[C@@H](O)[C@H]2O)c1=O | 51 µM | 20 µM | 53 µM | 19 µM
